Experimental data published in patent US9090632B2, “Bicyclic oxazole and thiazole compounds and their use as allosteric modulators of mGluR5 receptors” (Vanderbilt University, priority 2010, dated 2015).

Columns and labels:
human mGluR5 = human mGluR5 (Homo sapiens, UniProt P41594); assay: Cell-based functional Ca2+ mobilization assay, potentiation of glutamate EC20 response (H10H cell-line); settings: H10H cell-line expressing recombinant human mGluR5; for Emax / Emax (%): in presence of glutamate EC20, normalized to maximal glutamate response; for EC50 / pEC50: potentiation in presence of glutamate EC20
Procedure: Human embryonic kidney (HEK) cells transfected with rat mGluR5 were plated in clear bottom assay plates for assay in a Functional Drug Screening System (FDSS). In the alternative assay, HEK cells transfected with human mGluR5 were plated for assay in the FDSS. In some cases the HEK cells transfected with human mGluR5 are the H10H cell line. Alternatively, the HEK cells transfected with human mGluR5 are the H12H cell line. […] The cells were loaded with a Ca^2+-sensitive fluorescent dye (e.g., Fluo-4), and the plates were washed and placed in the FDSS instrument. After establishment of a fluorescence baseline for about three seconds, the compounds of the present invention were added to the cells, and the response in cells was measured. Five minutes later, an mGluR5 agonist (e.g., glutamate, 3,5-dihydroxyphenylglycine, or quisqualate) was added to the cells, and the response of the cells was measured. Potentiation of the agonist response of mGluR5 by the compounds in the present invention was observed as an increase in response to non-maximal concentrations of agonist (here, glutamate) in the presence of compound compared to the response to agonist in the absence of compound.
The above described assay can be operated in two modes. In the first mode, a range of concentrations of the present compounds were added to cells, followed by a single fixed concentration of agonist. If a compound acted as a potentiator, an EC50 value for potentiation and a maximum extent of potentiation by the compound at this concentration of agonist was determined by non-linear curve fitting. In the second mode, several fixed concentrations of the present compounds were added to various wells on a plate, followed by a range of concentrations of agonist for each concentration of present compound; the EC50 values for the agonist at each concentration of compound were determined by non-linear curve fitting. A decrease in the EC50 value of the agonist with increasing concentrations of the present compounds (a leftward shift of the agonist concentration-response curve) is an indication of the degree of mGluR5 potentiation at a given concentration of the present compound. An increase in the EC50 value of the agonist with increasing concentrations of the present compounds (a rightward shift of the agonist concentration-response curve) is an indication of the degree of mGluR5 antagonism at a given concentration of the present compound. The second mode also indicates whether the present compounds also affect the maximum response to mGluR5 to agonists.
Human mGluR5a cDNA in pCMV6-XL6 mammalian expression plasmid was purchased from OriGene Technologies, Inc. (catalogue number SC326357) and subcloned into pcDNA3.1(−). Human embryonic kidney (HEK) 293A cells were then transfected with human mGluR5a pcDNA3.1(−) using LipofectAmine 2000 (Invitrogen) and monoclones were selected and tested for functional response using a Ca^2+ mobilization assay. Monoclones were named for the species (“H” for human) plus the location on the plate (e.g. “10H”).
HEK cells transfected with the human mGluR5a receptor were plated at 15,000 cells/well in clear-bottomed poly-D-lysine-coated assay plates (BD Falcon) in glutamate-glutamine-free growth medium and incubated overnight at 37° C. and 5% CO2. The cell-line used to obtain the data reported herein was the H10H cell-line expressing the human mGluR5 receptor. Although the H10H cell-line was used to obtain the data shown herein, the H12H cell-line expressing the human mGluR5 receptor can also be used in these assays. The following day, the growth medium was removed and the cells were washed with assay buffer containing 1× Hank's balanced salt solution (Invitrogen, Carlsbad, Calif.), 20 mM HEPES, 2.5 mM probenecid, pH 7.4 and left with 20 μL of this reagent. Following this step, the cells were loaded with calcium indicator dye, fluo-4 AM, to a final concentration of 2 μM and incubated for 40-45 min at 37° C. […]

human mGluR5, sequence (P41594 21-1180 isoform P41594-2 limits assumed): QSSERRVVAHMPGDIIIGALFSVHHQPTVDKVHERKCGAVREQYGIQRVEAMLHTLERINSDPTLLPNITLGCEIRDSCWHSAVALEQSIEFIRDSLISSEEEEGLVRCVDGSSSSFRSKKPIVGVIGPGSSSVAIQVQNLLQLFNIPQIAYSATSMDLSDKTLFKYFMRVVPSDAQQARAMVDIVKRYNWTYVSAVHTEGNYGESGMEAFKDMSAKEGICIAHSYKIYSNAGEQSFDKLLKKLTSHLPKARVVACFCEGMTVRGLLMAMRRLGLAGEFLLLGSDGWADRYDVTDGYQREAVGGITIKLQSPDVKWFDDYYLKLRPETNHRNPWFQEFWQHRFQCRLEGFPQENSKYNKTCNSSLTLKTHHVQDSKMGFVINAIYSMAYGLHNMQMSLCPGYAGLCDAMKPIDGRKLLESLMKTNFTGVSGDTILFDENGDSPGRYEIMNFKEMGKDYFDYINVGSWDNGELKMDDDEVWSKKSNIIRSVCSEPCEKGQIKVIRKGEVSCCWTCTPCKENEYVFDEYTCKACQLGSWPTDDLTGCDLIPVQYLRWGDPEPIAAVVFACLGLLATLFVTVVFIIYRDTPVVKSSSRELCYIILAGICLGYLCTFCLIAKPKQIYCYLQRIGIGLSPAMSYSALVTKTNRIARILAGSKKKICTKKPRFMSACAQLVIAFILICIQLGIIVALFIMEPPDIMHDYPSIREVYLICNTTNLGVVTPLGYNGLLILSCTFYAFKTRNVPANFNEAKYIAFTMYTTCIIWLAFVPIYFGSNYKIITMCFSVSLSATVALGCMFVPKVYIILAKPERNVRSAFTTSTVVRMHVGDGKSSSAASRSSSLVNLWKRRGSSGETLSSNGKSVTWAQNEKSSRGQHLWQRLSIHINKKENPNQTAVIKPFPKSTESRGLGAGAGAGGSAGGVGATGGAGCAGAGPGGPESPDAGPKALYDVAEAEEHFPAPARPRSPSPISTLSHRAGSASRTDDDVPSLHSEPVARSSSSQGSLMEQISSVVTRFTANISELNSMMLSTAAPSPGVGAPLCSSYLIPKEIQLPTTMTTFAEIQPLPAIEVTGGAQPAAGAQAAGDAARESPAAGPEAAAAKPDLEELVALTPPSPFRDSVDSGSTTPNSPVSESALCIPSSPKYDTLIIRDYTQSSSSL

| Emax (human mGluR5) [%] | EC50 (human mGluR5) [nM] | melting point [°C] | Emax (%) (human mGluR5) | pEC50 (human mGluR5) | SMILES |
| --- | --- | --- | --- | --- | --- |
| 64 | > 10000 | 130.8 | – | – | O=C(c1cnn2ccccc12)N1CCc2nc(COc3ccccc3)oc2C1 [Example B95] |
| 53 | 257 | 78.5 | – | – | Cn1cccc1C(=O)N1CCc2nc(COc3ccccc3)oc2C1 [Example B84] |
| 64 | 871 | 124.1 to 125.3 | – | – | O=C(c1ccccc1F)N1CCc2nc(COc3ccccc3)sc2C1 [Example B5, 5-[(2-fluorophenyl)carbonyl]-2-(phenoxymethyl)-4,5,6,7-tetrahydro[1,3]thiazolo[5,4-c]pyridine] |
| 57 | > 10000 | 137.4 | – | – | O=C(c1ccc(F)cc1)N1CCc2nc(COc3ccc(O)cc3)oc2C1 [Example B35, 4-({5-[(4-fluorophenyl)carbonyl]-4,5,6,7-tetrahydro[1,3]oxazolo[5,4-c]pyridin-2-yl}methoxy)phenol] |
| 53 | 1780 | 92.5 | – | – | O=C(c1ccno1)N1CCc2nc(COc3ccccc3)oc2C1 [Example B88] |
| 58 | 3090 | 132.2 | – | – | N#Cc1ccc(C(=O)N2CCc3nc(COc4ccccc4)oc3C2)cc1 [Example B49] |
| 49 | 3720 | 98.3 | – | – | O=C(c1cncc(F)c1)N1CCc2nc(COc3ccccc3)oc2C1 [Example B65] |
| 59 | 1820 | 107.6 | – | – | O=C(c1ccc2ccccc2n1)N1CCc2nc(COc3ccccc3)oc2C1 [Example B79] |
| 71 | 331 | 90.1 | – | – | O=C(c1ccc(F)cc1F)N1CCc2nc(COc3cccc(F)c3)oc2C1 [Example B78] |
| 49 | 3020 | > 300 | – | – | O=C(c1cncc(F)c1)N1CCc2nc(COc3cccc(F)c3)oc2C1 [Example B67] |
| 67 | 2950 | 113.1 | – | – | O=C(c1ccc(F)cn1)N1CCc2nc(COc3ccccc3)oc2C1 [Example B40] |
| 21 | 331 | 158.2 | – | – | Cc1oncc1C(=O)N1CCc2nc(COc3ccccc3)oc2C1 [Example B71] |
| 14 | > 30200 | 198.1 | – | – | O=C(c1ccc2[nH]cnc2c1)N1CCc2nc(COc3ccccc3)oc2C1 [Example B156] |
| 57 | 776 | 55.5 | – | – | O=C(c1cccc2c1OCCO2)N1CCc2nc(COc3ccccc3)oc2C1 [Example B99] |
| 64.5 | 295 | 130 | – | – | N#Cc1cccc(C(=O)N2CCc3nc(COc4ccccc4)oc3C2)c1 [Example B43] |
| 70 | 933 | > 300 | – | – | O=C(c1ccc(OC(F)(F)F)cc1)N1CCc2nc(COc3ccccc3)oc2C1 [Example B75] |
| 10 | 891 | 71.8 | – | – | O=C(N1CCc2nc(COc3ccccc3)oc2C1)C(F)(F)F [Example B34, 2-(phenoxymethyl)-5-(trifluoroacetyl)-4,5,6,7-tetrahydro[1,3]oxazolo[5,4-c]pyridine] |
| 53 | > 10000 | 104.4 | – | – | Cc1nc(C(=O)N2CCc3nc(COc4ccccc4)oc3C2)c(C)o1 [Example B86] |
| 61 | 2190 | 102.9 | – | – | N#Cc1ccc(C(=O)N2CCc3nc(COc4cccc(F)c4)oc3C2)cc1F [Example B89] |
| 67 | 3310 | 109.8 | – | – | O=C(c1ncc(F)cc1F)N1CCc2nc(COc3cccc(F)c3)oc2C1 [Example B101] |
| 44 | 148 | 70 | – | – | O=C(c1cc(F)cc(F)c1)N1CCc2nc(COc3cccc(F)c3)oc2C1 [Example B30] |

| Emax (human mGluR5) [%] | EC50 (human mGluR5) [nM] | melting point [°C] | Emax (%) (human mGluR5) | pEC50 (human mGluR5) | SMILES |
| --- | --- | --- | --- | --- | --- |
| 56 | > 10000 | 137.2 | – | – | Cc1ccc(OCc2nc3c(o2)CN(C(=O)c2ccc(F)cc2)CC3)cc1 [Example B70] |
| 80 | 112 | 66 | – | – | O=C(c1cccc(F)c1)N1CCc2nc(COc3ccccc3)oc2C1 [Example B7, 5-[(3-fluorophenyl)carbonyl]-2-(phenoxymethyl)-4,5,6,7-tetrahydro[1,3]oxazolo[5,4-c]pyridine] |
| 67 | 501 | 102.9 | – | – | CN(C)c1cccc(C(=O)N2CCc3nc(COc4ccccc4)oc3C2)c1 [Example B83] |
| 75 | 708 | 121.3 | – | – | O=C(c1ccc2c(c1)OCO2)N1CCc2nc(COc3ccccc3)oc2C1 [Example B76] |
| 73 | 741 | 128.2 | – | – | N#Cc1cc(C(=O)N2CCc3nc(COc4ccccc4)oc3C2)ccc1F [Example B98] |
| 57 | 219 | > 300 | – | – | N#Cc1cccc(C(=O)N2CCc3nc(COc4cccc(F)c4)oc3C2)c1 [Example B85] |
| 76 | 186 | 74.7 | – | – | O=C(c1cccc(F)c1)N1CCc2nc(COc3cccc(F)c3)oc2C1 [Example B27] |
| 39.5 | 2000 | – | – | – | O=C(c1ncco1)N1CCc2nc(COc3ccccc3)oc2C1 [Example B60] |
| 48 | 1550 | – | – | – | O=C(c1ccc(F)cc1)N1CCc2nc(/C=C/c3ccccc3)oc2C1 [Example B14] |
| 44 | > 10000 | > 300 | – | – | O=C(c1ccnnc1)N1CCc2nc(COc3ccccc3)oc2C1 [Example B150] |
| 69 | 4790 | – | – | – | O=C(c1ccncc1)N1CCc2nc(COc3ccccc3)oc2C1 [Example B19] |
| 58 | 3550 | – | – | – | O=C(CC1CC1)N1CCc2nc(COc3ccccc3)oc2C1 [Example B2, 5-(cyclopropylacetyl)-2-(phenoxymethyl)-4,5,6,7-tetrahydro[1,3]oxazolo[5,4-c]pyridine] |
| 69 | 2000 | – | – | – | Cc1ccnc(OCc2nc3c(o2)CN(C(=O)c2ccc(F)cc2)CC3)c1 [Example B33, 5-[(4-fluorophenyl)carbonyl]-2-{[(4-methylpyridin-2-yl)oxy]methyl}-4,5,6,7-tetrahydro[1,3]oxazolo[5,4-c]pyridine] |
| 53 | > 10000 | – | – | – | CC(=O)N1CCc2nc(COc3ccccc3)oc2C1 [Example B24] |
| 61 | 85.1 | – | – | – | O=C(c1ccc(Br)o1)N1CCc2nc(COc3ccccc3)oc2C1 [Example B106] |
| – | – | – | 50 | <5 | O=C(c1cn[nH]c1)N1CCc2nc(COc3ccccc3)oc2C1 [Example B56] |
| – | – | – | 45 | <5 | N#Cc1cc(F)cc(OCc2nc3c(o2)CN(C(=O)c2ccc(F)cc2)CC3)c1 [Example B136] |
| 66.5 | 1260 | – | – | – | N#Cc1cccc(OCc2nc3c(o2)CN(C(=O)c2ccc(F)cc2)CC3)c1 [Example B53] |
| 57 | > 10000 | – | – | – | O=C(c1ncccc1Cl)N1CCc2nc(COc3ccccc3)oc2C1 [Example B74] |
| 47 | 132 | – | – | – | O=C(c1cc(F)cc(F)c1)N1CCc2nc(COc3ccccc3)oc2C1 [Example B3, 5-[(3,5-difluorophenyl)carbonyl]-2-(phenoxymethyl)-4,5,6,7-tetrahydro[1,3]oxazolo[5,4-c]pyridine] |
